{"source": "the Deep4Chem optical property database", "experiment": "photoluminescence quantum yield (fraction); solvent given as SMILES"}
{"smiles": "CC(C)(C)[Si](C)(C)C#CC1=CC2=c3cc(C#C[Si](C)(C)C(C)(C)C)c4nc(C(F)(F)C(F)(F)C(F)(F)F)nc5c(C#C[Si](C)(C)C(C)(C)C)cc(c3c54)C3=CC(C#C[Si](C)(C)C(C)(C)C)=C4N=C(C(F)(F)C(F)(F)C(F)(F)F)N=C1C4C32", "note": "(configuration not stated)", "values": [{"measurement": "photoluminescence quantum yield", "setting": "in C1CCOC1", "result": 0.35}]}
{"smiles": "C=Cc1cc(OC)cc(OC)c1", "values": [{"measurement": "photoluminescence quantum yield", "setting": "in C1CCCCC1", "result": 0.12}, {"measurement": "photoluminescence quantum yield", "setting": "in CC#N", "result": 0.5}]}
{"smiles": "CCCCCCCCC1(CCCCCCCC)c2cc(C#CC#Cc3ccc(N(c4ccccc4)c4ccccc4)cc3)ccc2-c2ccc(C=O)cc21", "values": [{"measurement": "photoluminescence quantum yield", "setting": "in C1CCOC1", "result": 0.9}, {"measurement": "photoluminescence quantum yield", "setting": "in C1COCCO1", "result": 0.76}, {"measurement": "photoluminescence quantum yield", "setting": "in CC#N", "result": 0.2}, {"measurement": "photoluminescence quantum yield", "setting": "in CC(C)=O", "result": 0.23}, {"measurement": "photoluminescence quantum yield", "setting": "in CCCCCC", "result": 0.5}, {"measurement": "photoluminescence quantum yield", "setting": "in CCOC(C)=O", "result": 0.76}, {"measurement": "photoluminescence quantum yield", "setting": "in CN(C)C=O", "result": 0.16}, {"measurement": "photoluminescence quantum yield", "setting": "in CS(C)=O", "result": 0.2}, {"measurement": "photoluminescence quantum yield", "setting": "in Cc1ccccc1", "result": 0.94}, {"measurement": "photoluminescence quantum yield", "setting": "in ClC(Cl)Cl", "result": 0.09}, {"measurement": "photoluminescence quantum yield", "setting": "in ClCCl", "result": 0.7}]}
{"smiles": "Cc1cc2c(o1)=CC1=Cc3cc4oc(C)cc4n3[B-](F)(F)[N+]=21", "values": [{"measurement": "photoluminescence quantum yield", "setting": "in C1CCOC1", "result": 0.93}, {"measurement": "photoluminescence quantum yield", "setting": "in CC#N", "result": 0.95}, {"measurement": "photoluminescence quantum yield", "setting": "in CCO", "result": 0.97}, {"measurement": "photoluminescence quantum yield", "setting": "in CO", "result": 0.96}, {"measurement": "photoluminescence quantum yield", "setting": "in Cc1ccccc1", "result": 0.94}, {"measurement": "photoluminescence quantum yield", "setting": "in ClC(Cl)Cl", "result": 0.96}]}
{"smiles": "CCC1(CC)c2cc(C=O)ccc2-c2ccc(N(C)C)cc21", "values": [{"measurement": "photoluminescence quantum yield", "setting": "in C1CCCCC1", "result": 0.02}, {"measurement": "photoluminescence quantum yield", "setting": "in CC#N", "result": 0.81}, {"measurement": "photoluminescence quantum yield", "setting": "in CCO", "result": 0.64}, {"measurement": "photoluminescence quantum yield", "setting": "in CCOCC", "result": 0.71}, {"measurement": "photoluminescence quantum yield", "setting": "in CS(C)=O", "result": 0.92}, {"measurement": "photoluminescence quantum yield", "setting": "in ClCCl", "result": 0.91}, {"measurement": "photoluminescence quantum yield", "setting": "in c1ccccc1", "result": 0.82}]}
{"smiles": "CC1(C)C2=[N+](CCCCCC(=O)NCCCNC(=O)CCCCCN3/C(=C/C=C/C=C/C=C/2)C(C)(C)c2cc(S(=O)(=O)[O-])ccc23)c2ccc(S(=O)(=O)[O-])cc21", "values": [{"measurement": "photoluminescence quantum yield", "setting": "in CO", "result": 0.58}, {"measurement": "photoluminescence quantum yield", "setting": "in O", "result": 0.36}]}
{"smiles": "C1=Cc2ccccc2C(=Cc2ccc(-c3ccc(C=C4c5ccccc5C=Cc5ccccc54)cc3)cc2)c2ccccc21", "values": [{"measurement": "photoluminescence quantum yield", "setting": "in C1CCOC1", "result": 0.00012}]}
{"smiles": "CSc1ccc(C#Cc2ccc(C#Cc3ccc(C#Cc4ccccc4C#N)cc3C#N)cc2C#N)cc1", "values": [{"measurement": "photoluminescence quantum yield", "setting": "in ClC(Cl)Cl", "result": 0.972}]}
{"smiles": "CCCCCCC(CCCCCC)N1C(=O)c2cccc3c(-c4ccc([Si](C)(C)C)cc4)ccc(c23)C1=O", "values": [{"measurement": "photoluminescence quantum yield", "setting": "in CCCCCC", "result": 0.14}, {"measurement": "photoluminescence quantum yield", "setting": "in CCCCCCCCCCCCCC", "result": 0.18}, {"measurement": "photoluminescence quantum yield", "setting": "in CCCCCCCCCCCO", "result": 0.85}, {"measurement": "photoluminescence quantum yield", "setting": "in CCCCO", "result": 0.89}, {"measurement": "photoluminescence quantum yield", "setting": "in CN(C)C=O", "result": 0.64}, {"measurement": "photoluminescence quantum yield", "setting": "in Cc1ccccc1", "result": 0.51}, {"measurement": "photoluminescence quantum yield", "setting": "in ClC(Cl)Cl", "result": 0.79}]}
{"smiles": "FC(F)(F)c1ccc2oc3nc4oc5ccc(N6c7ccccc7Oc7ccccc76)cc5c4cc3c2c1", "values": [{"measurement": "photoluminescence quantum yield", "setting": "in ClC(Cl)Cl", "result": 0.055}]}
{"smiles": "C[Si](C)(C)c1ccc(-c2ccc(-c3ccc(-c4ccc(-c5ccc([Si](C)(C)C)cc5)s4)c4nsnc34)s2)cc1", "values": [{"measurement": "photoluminescence quantum yield", "setting": "in C1CCOC1", "result": 0.77}]}
{"smiles": "COC(=O)[C@H](Cc1ccc2oc3c(c2c1)=CC1=C(c2ccc(OC)cc2)c2cc4c5cc(C[C@H](NC(=O)OC(C)(C)C)C(=O)OC)ccc5oc4n2[B-](F)(F)[N+]=31)NC(=O)OC(C)(C)C", "values": [{"measurement": "photoluminescence quantum yield", "setting": "in C1CCCCC1", "result": 0.81}, {"measurement": "photoluminescence quantum yield", "setting": "in CCOC(C)=O", "result": 0.86}, {"measurement": "photoluminescence quantum yield", "setting": "in CO", "result": 0.82}]}
{"smiles": "CCN1C(=O)C(C2C(=O)c3c4ccccc4cc4cc5ccccc5c2c34)C(=O)N(CC)C1=S", "note": "(configuration not stated)", "values": [{"measurement": "photoluminescence quantum yield", "setting": "in C1CCOC1", "result": 0.205}, {"measurement": "photoluminescence quantum yield", "setting": "in CCCCCC", "result": 0.316}, {"measurement": "photoluminescence quantum yield", "setting": "in Cc1ccccc1", "result": 0.052}, {"measurement": "photoluminescence quantum yield", "setting": "in ClCCl", "result": 0.237}]}
{"smiles": "Cc1c(COC(=O)Cc2cccc3ccccc23)n2c(OCC(=O)Cc3cccc4ccccc34)c(C)c(=O)n2c1=O", "values": [{"measurement": "photoluminescence quantum yield", "setting": "in CCO", "result": 0.84}]}
{"smiles": "Nc1ccc(C#Cc2ccc3ccc4ccc(C#Cc5ccc(N)cc5)c5ccc2c3c45)cc1", "values": [{"measurement": "photoluminescence quantum yield", "setting": "in CCCCCC", "result": 0.466}, {"measurement": "photoluminescence quantum yield", "setting": "in CO", "result": 0.199}, {"measurement": "photoluminescence quantum yield", "setting": "in ClCCl", "result": 0.646}]}
{"smiles": "C(#Cc1c(C#Cc2cccs2)c(C#Cc2cccs2)c(C#Cc2cccs2)c(C#Cc2cccs2)c1C#Cc1cccs1)c1cccs1", "values": [{"measurement": "photoluminescence quantum yield", "setting": "in ClCCl", "result": 0.27}]}
{"smiles": "NCCCCCCCCCCCCN1C(=O)c2ccc3c4ccc5c6c(ccc(c7ccc(c2c37)C1=O)c64)C(=O)N(CCCCCCCCCCCCN)C5=O", "values": [{"measurement": "photoluminescence quantum yield", "setting": "in CN(C)C=O", "result": 0.83}]}
{"smiles": "Oc1ccc(-c2ccco2)cc1-c1nc2ccccc2s1", "values": [{"measurement": "photoluminescence quantum yield", "setting": "in CCO", "result": 0.0588}, {"measurement": "photoluminescence quantum yield", "setting": "in ClCCl", "result": 0.0292}, {"measurement": "photoluminescence quantum yield", "setting": "in O", "result": 0.07}]}
{"smiles": "CC1(C)c2ccccc2N(c2ccc(-c3nc4cc(C#N)c(C#N)cc4nc3-c3ccc(N4c5ccccc5C(C)(C)c5ccccc54)cc3)cc2)c2ccccc21", "values": [{"measurement": "photoluminescence quantum yield", "setting": "in Cc1ccccc1", "result": 0.91}]}
{"smiles": "Cc1cc(C2=C(c3cc(C)sc3C)S(=O)(=O)c3ccccc32)c(C)s1", "values": [{"measurement": "photoluminescence quantum yield", "setting": "in C1CCOC1", "result": 0.016}]}
{"smiles": "Cc1cc2c3ccccc3oc2c2[nH]c3ccccc3c12", "values": [{"measurement": "photoluminescence quantum yield", "setting": "in ClCCl", "result": 0.444}]}
{"smiles": "CC1(C)c2ccccc2N(c2ccc(-c3ccc(C#N)c(C#N)n3)cc2)c2ccccc21", "values": [{"measurement": "photoluminescence quantum yield", "setting": "in Cc1ccccc1", "result": 0.489}, {"measurement": "photoluminescence quantum yield", "setting": "in N#Cc1ccc2c(c1)c1ccccc1n2-c1cccc(-n2c3ccccc3c3ccccc32)c1", "result": 0.904}]}
{"smiles": "COCCOCCOCCOCCOc1cc(C=O)c(OCCOCCOCCOCCOC)cc1C=O", "values": [{"measurement": "photoluminescence quantum yield", "setting": "in CC(C)(C)O", "result": 0.12}, {"measurement": "photoluminescence quantum yield", "setting": "in CC(C)CO", "result": 0.1}, {"measurement": "photoluminescence quantum yield", "setting": "in CC(C)O", "result": 0.11}, {"measurement": "photoluminescence quantum yield", "setting": "in CCCCO", "result": 0.09}, {"measurement": "photoluminescence quantum yield", "setting": "in CCCO", "result": 0.14}, {"measurement": "photoluminescence quantum yield", "setting": "in CCO", "result": 0.18}, {"measurement": "photoluminescence quantum yield", "setting": "in CN(C)C=O", "result": 0.04}, {"measurement": "photoluminescence quantum yield", "setting": "in CNC=O", "result": 0.05}, {"measurement": "photoluminescence quantum yield", "setting": "in CO", "result": 0.22}, {"measurement": "photoluminescence quantum yield", "setting": "in NC=O", "result": 0.31}, {"measurement": "photoluminescence quantum yield", "setting": "in O", "result": 0.55}]}
